Results as given in PMC4865847, “Putative histidine kinase inhibitors with antibacterial effect against multi-drug resistant clinical isolates identified by in vitro and in silico screens” (Scientific Reports, 2016).
Values after ≈ are worked out from the molar mass of the structure shown. Where two headings read alike, the source gives them in different places. Marks after values point to notes of the source that are not given here.

Columns and labels:
Staphylococcus aureus = experiment: Antibacterial susceptibility testing (MIC/MBC), S. aureus; format: cell-based; conditions: Staphylococcus aureus; for MBC: read-out: MBC S. aureus DSM 20231
Description: (§1) Minimal inhibitory concentrations (MICs) were determined following a standard double-dilution method. […] For S. pneumoniae MICs were determined by adapting the standard double-dilution method to anaerobic conditions and of this microorganism (use of Todd Hewitt Yeast extract with 200 U/mL of catalase and continuous monitoring of growth).

Klebsiella pneumoniae = experiment: Antibacterial susceptibility testing (MIC), K. pneumoniae; format: cell-based; conditions: Klebsiella pneumoniae, ATCC700603, strain ATCC 700603
Description: (§2) Bacterial strains used in this study for antibacterial susceptibility testing (Table S5) were propagated using standard microbiological procedures. Minimal inhibitory concentrations (MICs) were determined following a standard double-dilution method. MICs were recorded as the lowest concentration of the compound where no visible growth was observed. After plating the dilutions around the MIC or growing them in fresh MH media, minimal bactericidal concentration (MBC) was recorded as the lowest concentration of the compound at which no colonies were formed or no growth was observed, respectively. For S. pneumoniae MICs were determined by adapting the standard double-dilution method to anaerobic conditions and of this microorganism (use of Todd Hewitt Yeast extract with 200 U/mL of catalase and continuous monitoring of growth).

Escherichia coli = experiment: Antibacterial susceptibility testing (MIC/MBC), E. coli; format: cell-based; conditions: Escherichia coli; for MBC: read-out: MBC E. coli CFT 073
Description: as §1

E. coli PhoR (PhoR^E) [1] = molecular target: T1, E. coli PhoR (PhoR^E) (Escherichia coli, UniProt P08400); experiment: In vitro autophosphorylation kinase assay with γ-32P-ATP, PhoR^E; format: biochemical; conditions: autophosphorylation, one time point (30 sec), 10% DMSO
T1 construct: The catalytic portion (DHp and CA domain) of E. coli PhoR (PhoR^E); made in house; host or cells: E. coli RIL
Description: (§3) To evaluate the inhibitory capacity of selected hits from DSF, SBVS and LBSS in vitro autophosphorylation kinase assays with γ-^32P-ATP were performed as previously described. Ligands were dissolved in 100% DMSO. […] Controls lacking ligands contained an equal concentration of DMSO. Inhibition of autophosphorylation was determined by incubating 0.12 mg/ml (≈4 μM) HK and up to 20 mM fragment in kinase buffer (50 mM Tris HCl, pH 8.5, 50 mM KCl, 5 mM MgCl2, 0.5 mM EDTA and 0.1 mM DTT). Autophosporylation reactions were initiated by addition of 0.1 μCi/μl γ-^32P-ATP containing from 0.03 to 0.06 μM ATP (final concentrations). Autophosphorylation was quenched with 2xSDS-PAGE sample buffer supplemented with 50 mM EDTA. […] After electrophoresis, the bottoms of the gels were removed to lower the background from the unincorporated radiolabeled ATP. Gels were dried without staining on a Bio-Rad Gel Air drying system and the phosphorylated protein was quantified by phosphor-imaging. Prism GraphPad was used for curve fitting and statistical analysis.

Streptococcus suis = experiment: Antibacterial susceptibility testing (MIC), S. suis; format: cell-based
Description: as §2

Streptococcus pneumoniae = experiment: Antibacterial susceptibility testing (MIC), S. pneumoniae; format: cell-based; conditions: strain 49619
Description: as §2

S. pneumoniae WalK = molecular target: T2, S. pneumoniae WalK (Streptococcus pneumoniae, UniProt Q8DPL8); experiment: In vitro autophosphorylation kinase assay with γ-32P-ATP, WalK; format: biochemical; conditions: autophosphorylation, one time point (30 sec), 10% DMSO
T2 construct: WalK (amino acids from 208 to 449); N-terminal His6-3C site of vector pOPINF (own knowledge of the vector); made in house; host or cells: E. coli RIL
Description: as §3

[2] = test system: Stenotrophomonas maltophilia; experiment: Antibacterial susceptibility testing (MIC), S. maltophilia; format: cell-based
Description: as §2

Hemolysis assay = format: cell-based; conditions: human
Description: Hemolytic activity against human erythrocytes taken from a healthy donor was measured as previously described. The hemolysis experiments were carried out in accordance with the guidelines of the United Arab Emirates University (UAEU) Research Ethics Review Board. All experimental protocols were approved by the Research Ethics Review Board of UAEU and informed consent was obtained from all donors.

Pseudomonas aeruginosa = experiment: Antibacterial susceptibility testing (MIC), P. aeruginosa; format: cell-based; conditions: Pseudomonas aeruginosa, ATCC27853; strain ATCC 27853
Description: as §2

Acinetobacter baumannii = experiment: Antibacterial susceptibility testing (MIC), A. baumannii; format: cell-based
Description: as §2

[3] = test system: Staphylococcus epidermidis; experiment: Antibacterial susceptibility testing (MIC/MBC), S. epidermidis; format: cell-based; conditions: for MBC / MIC: Staphylococcus epidermidis
Description: as §1

T. maritima HK853 = molecular target: T3, T. maritima HK853 (Thermotoga maritima, UniProt Q9WZV7); experiment: In vitro autophosphorylation kinase assay with γ-32P-ATP, HK853; format: biochemical
T3 sequence (Q9WZV7 232-489): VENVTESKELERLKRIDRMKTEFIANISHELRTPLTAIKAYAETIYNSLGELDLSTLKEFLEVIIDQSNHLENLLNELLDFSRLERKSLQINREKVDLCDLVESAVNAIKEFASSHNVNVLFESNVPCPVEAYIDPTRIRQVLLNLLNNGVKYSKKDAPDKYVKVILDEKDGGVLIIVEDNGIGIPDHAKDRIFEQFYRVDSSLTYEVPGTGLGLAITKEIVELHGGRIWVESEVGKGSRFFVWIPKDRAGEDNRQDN
Description: (§4) To evaluate the inhibitory capacity of selected hits from DSF, SBVS and LBSS in vitro autophosphorylation kinase assays with γ-^32P-ATP were performed as previously described. Ligands were dissolved in 100% DMSO. […] Controls lacking ligands contained an equal concentration of DMSO. Inhibition of autophosphorylation was determined by incubating 0.12 mg/ml (≈4 μM) HK and up to 20 mM fragment in kinase buffer (50 mM Tris HCl, pH 8.5, 50 mM KCl, 5 mM MgCl2, 0.5 mM EDTA and 0.1 mM DTT). Autophosporylation reactions were initiated by addition of 0.1 μCi/μl γ-^32P-ATP containing from 0.03 to 0.06 μM ATP (final concentrations). Autophosphorylation was quenched with 2xSDS-PAGE sample buffer supplemented with 50 mM EDTA. Samples were applied without heating to 15% (w/v) Tris-glycine SDS-polyacrylamide gels. After electrophoresis, the bottoms of the gels were removed to lower the background from the unincorporated radiolabeled ATP. Gels were dried without staining on a Bio-Rad Gel Air drying system and the phosphorylated protein was quantified by phosphor-imaging. Prism GraphPad was used for curve fitting and statistical analysis.

E. coli PhoR (PhoR^E) [4] = molecular target: T1, E. coli PhoR (PhoR^E); experiment: Aggregation analysis by native-PAGE, PhoR^E; conditions: 2 mM (S5 and S6 5 mM), 10% DMSO
Description: (§5) E. coli PhoR and EnvZ, and S. aureus PhoR ([…], final concentration) were prepared in kinase buffer. […] DMSO in the assays was maintained to a final concentration 10% (v/v). After 30 min of incubation at room temperature Native polyacrylamide gel electrophoresis (Native-PAGE) loading buffer was added and samples loaded. Coomassie blue staining was used for protein visualization.

S. aureus PhoR (PhoR^S) [5] = molecular target: T4, S. aureus PhoR (PhoR^S) (Staphylococcus aureus, UniProt Q2FXN7); experiment: In vitro autophosphorylation kinase assay with γ-32P-ATP, PhoR^S; format: biochemical; conditions: IC50 PhoR^S, autophosphorylation, one time point (30 sec), 10% DMSO
Description: as §4

[6] = Solubility in kinase buffer; format: physicochemical; conditions: kinase buffer with 10% DMSO, pH 8.5, aqueous with cosolvent or surfactant or cyclodextrin, kinetic from dmso stock; kinase buffer in the presence of 10% DMSO; read-out: concentration above which not soluble / reduced solubility in kinase buffer
S. aureus PhoR (PhoR^S) [7] = molecular target: T4, S. aureus PhoR (PhoR^S); experiment: Aggregation analysis by native-PAGE, PhoR^S; conditions: 2 mM (S5 and S6 5 mM), 10% DMSO
Description: as §5

[8] = strain CFT 073, read-out: MIC E. coli CFT 073

T1 sequence (P08400 210-425): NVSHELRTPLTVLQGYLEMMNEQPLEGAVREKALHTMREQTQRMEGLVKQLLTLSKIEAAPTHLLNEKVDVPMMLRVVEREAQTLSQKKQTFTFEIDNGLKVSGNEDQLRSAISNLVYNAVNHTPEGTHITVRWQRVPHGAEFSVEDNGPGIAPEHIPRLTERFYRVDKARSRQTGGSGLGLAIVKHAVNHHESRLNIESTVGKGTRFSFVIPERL
T4 sequence (Q2FXN7 entry or part of it): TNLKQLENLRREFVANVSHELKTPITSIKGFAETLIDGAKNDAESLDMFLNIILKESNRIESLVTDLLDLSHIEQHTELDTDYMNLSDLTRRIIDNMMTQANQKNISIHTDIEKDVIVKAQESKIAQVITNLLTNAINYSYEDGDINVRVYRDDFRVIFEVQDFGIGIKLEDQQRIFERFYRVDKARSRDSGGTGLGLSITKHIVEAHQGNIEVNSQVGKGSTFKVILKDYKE
T2 sequence (Q8DPL8 208-449): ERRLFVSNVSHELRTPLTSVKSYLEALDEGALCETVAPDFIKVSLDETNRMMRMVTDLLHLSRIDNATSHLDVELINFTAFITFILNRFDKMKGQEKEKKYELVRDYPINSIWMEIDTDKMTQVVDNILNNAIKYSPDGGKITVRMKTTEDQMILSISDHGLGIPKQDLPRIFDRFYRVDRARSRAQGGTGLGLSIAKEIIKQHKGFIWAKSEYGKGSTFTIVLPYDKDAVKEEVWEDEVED

Compound `CC(C)NCC(O)COc1cccc2[nH]c3ccccc3c12` (stereo not shown) [F2.4] has an MIC (Staphylococcus aureus; ATCC reference strain 25293, read-out: MIC S. aureus 25293) of 125 µg/mL (≈ 419 µM), an MBC (Staphylococcus aureus; DSM20231, strain DSM 20231) of 250 µg/mL (≈ 838 µM) and an MIC (Staphylococcus aureus; MRSA clinical isolate 127/08, read-out: MIC S. aureus 127/08) of 500 µg/mL (≈ 1680 µM). The MIC (Staphylococcus aureus; MRSA clinical isolate 145/08, read-out: MIC S. aureus 145/08) was 250 µg/mL (≈ 838 µM), the MIC (Staphylococcus aureus; MRSA clinical isolate 274/08, read-out: MIC S. aureus 274/08) was 500 µg/mL (≈ 1680 µM) and the MIC (Staphylococcus aureus; MRSA, MRSA clinical isolate S908, read-out: MIC S. aureus S908) was 500 µg/mL (≈ 1680 µM). It also gave an MIC (Staphylococcus aureus; MRSA, MRSA clinical isolate T4/6, read-out: MIC S. aureus T4/6) greater than 500 µg/mL, an MIC (Staphylococcus aureus; MRSA, MRSA clinical isolate V4180, read-out: MIC S. aureus V4180) of 500 µg/mL (≈ 1680 µM) and an MIC (Staphylococcus aureus; MRSA, summary over strains, read-out: MICs for the MRSA strains and S. aureus 25293) of 125 to 500 µg/mL (≈ 419 to 1680 µM). For the same compound, the MIC (Klebsiella pneumoniae) was greater than 500 µg/mL, the MIC (Escherichia coli; ATCC25276, strain ATCC 25276, read-out: MIC E. coli ATCC 25276) was 500 µg/mL (≈ 1680 µM) and the MBC (Escherichia coli; strain CFT 073) was 500 µg/mL (≈ 1680 µM). For the same compound, the MIC (Escherichia coli; [8]) was 500 µg/mL (≈ 1680 µM), the IC50 (E. coli PhoR (PhoR^E) [1]; read-out: IC50 PhoR^E) was greater than 2000 µM and the MIC (Streptococcus suis; Streptococcus suis, read-out: MIC Streptococcus suis 3881/S10, strain 3881/S10) was 125 µg/mL (≈ 419 µM). For the same compound, the “MIC Streptococcus suis 3881/S10” value (Streptococcus suis; strain 3881/S10) was 250 µg/mL (≈ 838 µM), the MIC (Streptococcus pneumoniae) was 64 µg/mL (≈ 214 µM) and the IC50 (S. pneumoniae WalK; read-out: IC50 WalK) was greater than 2000 µM. It also gave an MIC ([2]; clinical isolate B5/5, read-out: MIC S. maltophilia B5/5) greater than 500 µg/mL, an MIC ([2]; clinical isolate B6/2, read-out: MIC S. maltophilia B6/2) of 500 µg/mL (≈ 1680 µM) and an MIC ([2]; clinical isolate B32/1, read-out: MIC S. maltophilia B32/1) of 500 µg/mL (≈ 1680 µM). For the same compound, the MIC ([2]; summary over strains, read-out: MICs for S. maltophilia strains) was 500 µg/mL (≈ 1680 µM), the HC50 (Hemolysis assay) was greater than 500 µg/mL and the MIC (Pseudomonas aeruginosa) was greater than 500 µg/mL. For the same compound, the MIC (Acinetobacter baumannii; MDR clinical isolate NM8, read-out: MIC A. baumannii NM8) was 500 µg/mL (≈ 1680 µM), the MIC (Acinetobacter baumannii; MDR clinical isolate NM35, read-out: MIC A. baumannii NM35) was greater than 500 µg/mL and the MIC (Acinetobacter baumannii; MDR clinical isolate NM75, read-out: MIC A. baumannii NM75) was greater than 500 µg/mL. For the same compound, the MIC (Acinetobacter baumannii; MDR clinical isolate NM109, read-out: MIC A. baumannii NM109) was 500 µg/mL (≈ 1680 µM), the MIC (Acinetobacter baumannii; MDR clinical isolate NM124, read-out: MIC A. baumannii NM124) was 500 µg/mL (≈ 1680 µM) and the MIC (Acinetobacter baumannii; summary over strains, read-out: MICs for A. baumannii strains) was 500 µg/mL (≈ 1680 µM). For the same compound, the MBC ([3]; DSM20044, strain DSM 20044) was 500 µg/mL (≈ 1680 µM) and the MIC ([3]; strain RP62A (biofilm producer), read-out: MIC S. epidermidis RP62A) was greater than 500 µg/mL.

`CCC(Nc1cccc(NC(C)=O)c1)c1ccc(F)cc1` (stereo not shown) [S5] gave an MBC (Staphylococcus aureus; DSM20231, strain DSM 20231) greater than 500 µg/mL, an MIC (Staphylococcus aureus; DSM20231, strain DSM 20231, read-out: MIC S. aureus DSM 20231) greater than 500 µg/mL and an IC50 (T. maritima HK853) greater than 5000 µM. For the same compound, the “HK aggregation, PhoR^E” value (E. coli PhoR (PhoR^E) [4]) was “do not cause HK aggregation”, the MBC (Escherichia coli; strain CFT 073) was greater than 500 µg/mL and the MIC (Escherichia coli; [8]) was greater than 500 µg/mL. The IC50 (E. coli PhoR (PhoR^E) [1]; IC50 PhoR^E) was roughly 1000 µM, the IC50 (S. pneumoniae WalK; IC50 WalK) was greater than 1000 µM and the IC50 (S. aureus PhoR (PhoR^S) [5]) was roughly 1000 µM. It also gave a solubility [6] of no more than 1300 µM, an MBC ([3]; DSM20044, strain DSM 20044) greater than 500 µg/mL and an MIC ([3]; DSM20044, strain DSM 20044, read-out: MIC S. epidermidis DSM 20044) of 500 µg/mL (≈ 1750 µM). The “MIC S. epidermidis DSM 20044” value ([3]; strain DSM 20044) was 500^# μg/ml and the “HK aggregation, PhoR^S” value (S. aureus PhoR (PhoR^S) [7]) was “do not cause HK aggregation”.
